Reference: US20220074941A1, “HSP90 COMBINATION THERAPY” (Sloan-Kettering Institute for Cancer Research, priority 2011, published 2022)
Entries after “also recorded” stand apart in the source; their conditions may differ.

Tests used:
K562 cells [1] = test: Alamar Blue cell growth assay; format: cell-based; settings: K562, 72 h
Experimental: (§1) FIGS. 7a-7g. PU-H71 identified proteins and networks are those important for the malignant phenotype. (a) K562 cells were treated for 72 h with the indicated inhibitors and cell growth analyzed by the Alamar Blue assay. Data are presented as means±SD (n=3). (b) Sequential chemical-precipitations, as indicated, were conducted in K562 extracts with the PU-beads at the indicated frequency. Proteins in the pull-downs and in the remaining supernatant were analyzed by WB. (c) The effect of CARMI knock-down on cell viability using Tryptan blue (left) or Acridine orange/Ethidium bromide (right) stainings was evaluated in K562 cells. (d) The expression of select potential Hsp90-interacting proteins was analyzed by WB in K562 leukemia and Mia-PaCa-2 pancreatic cancer cells. […] Proteins in the pull-downs were analyzed by WB. (g) The effect of select inhibitors on Mia-PaCa-2 cell growth was analyzed as in panel (a).
(§2) Viability assessment in K562 cells untransfected or transfected with CARMI shRNA or scramble was performed using Trypan Blue. […] Apoptosis analysis was assessed using fluorescence microscopy by mixing 2 μL of acridine orange (100 μg/mL), 2 μL of ethidium bromide (100 μg/mL), and 20 μL of the cell suspension. A minimum of 200 cells was counted in at least five random fields. […] Results were analyzed using the Softmax Pro and the GraphPad Prism softwares. […]

Mia-PaCa-2 cells = test: Alamar Blue cell growth assay; format: cell-based, human; settings: Mia-PaCa-2, 72 h
Experimental: as §1, §2

[2] = test system: HCC1937 breast cancer cells; test: Clonogenic survival, combination with PU-H71; format: cell-based
Text: (§3) Specifically, among the Hsp90-regulated pathways identified in the K562 CML cells, MDA-MB-468 breast cancer cells and the Mia-PaCa-2 pancreatic cancer cells are several involved in DNA damage, replication and repair response and/or homologous recombination (Tables 3, 5a-5f). Hsp90 inhibition may synergize or be additive with agents that act on DNA damage and/or homologous recombination (i.e. potentiate DNA damage sustained post treatment with IR/chemotherapy or other agents, such as PARP inhibitors that act on the proteins that are important for the repair of double-strand DNA breaks by the error-free homologous recombinational repair pathway).

[3] = test system: MDA-MB-468 breast cancer cells; test: Clonogenic survival, combination with PU-H71; format: cell-based; settings: MDA-MB-468, combination with PU-H71
Text: as §3

[4] = test system: OCI-LYI, OCI-LY7, Farage and SUDHL6 DLBCL cells; test: Combination of PU-H71 with SYK inhibitor in DLBCL cells; format: cell-based
DLBCL cell lines = settings: literature; cited from earlier work
K562 CML cells = test: Drug combination with PU-H71 in CML cells; format: cell-based
Text: Since single agent therapy is not likely to be curative in cancer, it is necessary to design rational combinatorial therapy approaches. Proteomic identification of oncogenic Hsp90-scaffolded signaling networks may identify additional oncoproteins that could be further targeted using specific small molecule inhibitors.

[5] = test system: patients with advanced pancreatic cancer; settings: cited from earlier work
DLBCL patients = settings: Phase II; cited from earlier work
K562 cells [6] = test: Western blot of proteins in treated K562 cells; format: cell-based; settings: PU-H71 5 μM or Gleevec 0.5 μM, time course
Experimental: FIGS. 5a-5f. […] (a) Hsp90 complexes in K562 extracts were isolated by precipitation with H9010, a non-specific IgG, or by PU-H71- or Control-beads. Control beads contain ethanolamine, an Hsp90-inert molecule. Proteins in pull-downs were analyzed by Western blot. (b,c) Single or sequential immuno- and chemical-precipitations, as indicated, were conducted in K562 extracts with H9010 and PU-beads at the indicated frequency and in the shown sequence. Proteins in the pull-downs and in the remaining supernatant were analyzed by WB. NS=non-specific. […] (e) Expression of proteins in Hsp70-knocked-down cells was analyzed by Western blot (left) and changes in protein levels presented in relative luminescence units (RLU) (right). Control=scramble siRNA. […] Proteins in the pull-downs and in the remaining supernatant were analyzed by Western blot. […]
FIGS. 8a-8h. […] Proteins in the pull-downs and in the remaining supernatant were analyzed by WB. […] Proteins were analyzed by WB (upper), quantified by densitometry and graphed against treatment time (lower). […] (f) Quantitative chromatin immunoprecipitation assays (QChIP) performed with STAT5 or Hsp90 antibodies vs. IgG control for two known STAT5 target genes (CCND2 and […]).
Protein concentrations were determined using BCA kit (Pierce) according to the manufacturer's instructions. […]

[7] = biological target: T1, cell surface Hsp90 in MV4-11 leukemia cells (Homo sapiens, UniProt P07900); test: Flow cytometry detection of cell surface Hsp90 with PU-H71-biotin; format: cell-based; settings: MV4-11 cells, 2 h at 37° C., SA-PE staining
T1 construct: specifically detect Hsp90 when expressed on the cell surface; endogenous in cells; host or cells: MV4-11 live cells
Text: FIGS. 29a and 29b. A) Hsp90-containing protein complexes from the brains of JNPL3 mice, an Alzheimer's disease transgenic mouse model, isolated through chemical precipitation with beads containing a streptavidin-immobilized PU-H71-biotin construct or control streptavidin-immobilized D-biotin. Aberrant tau species are indicated by arrow. c1, c2 and s1, s2, cortical and subcortical brain homogenates, respectively, extracted from 6-month-old female JNPL3 mice (Right). Western blot analysis of brain lysate protein content (Left). B) Cell surface Hsp90 in MV4-11 leukemia cells as detected by PU-H71-biotin. The data are consistent with those obtained from multiple repeat experiments (n 2′: 2).
Cells were then analyzed using the BD-LSRII flow cytometer. Mean fluorescence intensity (MFI) was used to calculate the binding of PU-H71-biotin to cells and values were normalized to the MFI of untreated cells stained with SA-PE.

[8] = test system: Hsp90 from SKBr3 cellular extracts; test: Fluorescence polarization (FP) competition assay with GM-cy3B; format: binding; settings: FP competition with GM-cy3B, SKBr3 lysate, 4° C. for 24 h; read-out: IC50 (nM), binding affinity for Hsp90 from SKBr3 cellular extracts
Text: The attachment of small molecules to a solid support is a very useful method to probe their target and the target's interacting partners. […] Perhaps the most crucial aspects in designing such chemical probes are determining the appropriate site for attachment of the small molecule ligand, and designing an appropriate linker between the molecule and the solid support. Our strategy to design Hsp90 chemical probes entails several steps. First, in order to validate the optimal linker length and its site of attachment to the Hsp90 ligand, the linker-modified ligand was docked onto an appropriate X-ray crystal structure of Hsp90α. Second, the linker-modified ligand was evaluated in a fluorescent polarization (FP) assay that measures competitive binding to Hsp90 derived from a cancer cell extract. […] These steps are important to ensure that the solid-support immobilized molecules maintain a strong affinity for Hsp90. Finally, the linker-modified small molecule was attached to the solid support, and its interaction with Hsp90 was validated by incubation with an Hsp90-containing cell extract.
Briefly, FP measurements were performed on an Analyst GT instrument (Molecular Devices, Sunnyvale, Calif.). […] Drugs were added in triplicate wells. […] The assay plate was incubated on a shaker at 4° C. for 24 h and the FP values in mP were measured. The fraction of tracer bound to Hsp90 was correlated to the mP value and plotted against values of competitor concentrations. […] All experimental data were analyzed using SOFTmax Pro 4.3.1 and plotted using Prism 4.0 (Graphpad Software Inc., San Diego, Calif.).

Structure (SMILES): CC(C)n1nc(-c2cc3cc(O)ccc3[nH]2)c2c(N)ncnc21 [PP242]
- effect on cell growth (K562 cells [1]): toxic to both cells
- effect on cell growth (Mia-PaCa-2 cells): toxic to both cells

Structure (SMILES): O=C(c1cc(Cc2n[nH]c(=O)c3ccccc23)ccc1F)N1CCN(C(=O)C2CC2)CC1 [olaparib]
- drug interaction with PU-H71 in inhibiting clonogenic survival [2]: synergizes
- drug interaction with PU-H71 in inhibiting clonogenic survival [3]: synergizes

Structure (SMILES): COc1cc(Nc2ncc(F)c(Nc3ccc4c(n3)NC(=O)C(C)(C)O4)n2)cc(OC)c1OC [Compound R406]
- efficacy of combination with PU-H71 versus each inhibitor alone [4]: synergizes; also recorded: more efficacious
- effect on DLBCL cell lines (DLBCL cell lines): blocks proliferation and induces apoptosis

Structure (SMILES): COc1ccc(S(=O)(=O)N(CCO)c2ccccc2CN(C)C/C=C/c2ccc(Cl)cc2)cc1 [KN93]
- drug interaction with Hsp90 inhibitor PU-H71 (K562 CML cells): synergize

Structure (SMILES): Nc1ccn([C@@H]2O[C@H](CO)[C@@H](O)C2(F)F)c(=O)n1 [gemcitabine]
- median survival [5]: approximately 6 months

Structure (SMILES): CO[C@H]1C[C@@H]2CC[C@@H](C)[C@@](O)(O2)C(=O)C(=O)N2CCCC[C@H]2C(=O)O[C@H]([C@H](C)C[C@@H]2CC[C@@H](OCCO)[C@H](OC)C2)CC(=O)[C@H](C)/C=C(\C)[C@@H](O)[C@@H](OC)C(=O)[C@H](C)C[C@H](C)/C=C/C=C/C=C/1C [everolimus]
- ORR (DLBCL patients): 35%

Structure (SMILES): Cc1ccc(NC(=O)c2ccc(CN3CCN(C)CC3)cc2)cc1Nc1nccc(-c2cccnc2)n1 [Gleevec]
- STAT5 phosphorylation (p-STAT5 levels) (K562 cells [6]): rapidly decreased
- effect on cell growth (K562 cells [1]): toxic only to K562 cells
- effect on cell growth (Mia-PaCa-2 cells): toxic only to K562 cells

Structure (SMILES): Nc1ncnc2c1nc(Sc1cc3c(cc1I)OCO3)n2CCCNCCOCCOCCOCCNC(=O)CCCC[C@@H]1SC[C@@H]2NC(=O)N[C@@H]21 [Compound 7]
- detection of Hsp90 on the cell surface [7]: can detect Hsp90 expression on the surface of leukemia cells
- IC50 [8]: 67.1 nM
